Measured values: patent EP2918282A1, “Pharmaceutical composition for the treatment of virus diseases, such as flu” (OOO "CytoNIR", priority 2014, dated 2015)

Test system: Grippevirus A/Vladivostok/2/09 (H1N1)
Assay: Survival of mice infected with a lethal dose of influenza virus, peroral treatment for 5 days
Type: in vivo, Mäuse
Details: virus strain resistant to Oseltamyvir; 30 mg/kg
Description: Die Wirksamkeit des Mittels wurde an einem Modell der Überlebensfähigkeit von angesteckten Versuchstieren geprüft. Die Versuchstiere wurden mit einer tödlichen Dosis des Grippevirus A/Vladivostok/2/09 (H1N1) angesteckt. Während der Forschung wurde das erfindungsgemäße Mittel 5 Tage lang peroral verabreicht.
Als Versuchstiere wurden weiße männliche Auszucht-Mäuse mit einem Körpergewicht von 16 - 18 g aus der Aufzuchtstation Rappolovo der Russischen Akademie der medizinischen Wissenschaften verwendet. Vor der Prüfung wurden die Versuchstiere einer Quarantäne in einem Vivarium im Laufe einer Woche unterzogen. Die Versuchstiere wurden unter genormten Klima-Bedingungen mit ausgewogener Fütterung gehalten. Jede Gruppe enthielt je 30 Versuchstiere.
Um eine versuchsmäßige Grippe-Infektion zu simulieren, wurde ein bestimmter Virusstamm eingesetzt. Die Versuchstiere wurden mit dem A/Vladivostok/2/09 (H1N1)-Virus in Mengen von 1 und 10 DL50 intranasal angesteckt.
Die Behandlung der angesteckten Mäuse wurde 24 Stunden nach der Ansteckung begonnen. Die Präparate wurden intragastrisch mittels einer Sonde verabreicht. Bei diesen Präparaten handelte es sich um eine Lösung in einer physiologischen Kochsalzlösung. Die Dosis des Arzneimittels wurde pro ein kg des Körpergewichts des Tieres berechnet. Die Behandlung wurde im Laufe von 5 Tagen vorgenommen. […]

Compound: CCOC(=O)C1=C[C@@H](OC(CC)CC)[C@H](NC(C)=O)[C@@H](N)C1 [Tamiflu, Oseltamyvir]
- Schutzsteigerung: keine zuverlässige Schutzsteigerung
